In the supplement of paper PMC10307832:

How the values were obtained:
Test in all cases: relative viability (nuclei count vs DMSO), 5 days (fraction); higher = more cells survive
Pictilisib + Pemetrexed = compound: CS(=O)(=O)N1CCN(Cc2cc3nc(-c4cccc5[nH]ncc45)nc(N4CCOCC4)c3s2)CC1 [Pictilisib] + Nc1nc2[nH]cc(CCc3ccc(C(=O)N[C@@H](CCC(=O)O)C(=O)O)cc3)c2c(=O)[nH]1 [Pemetrexed] (partner 0.2 µM)
Procedure, shortened: (§1)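 Lung cancer cell lines were pin-tool dosed in 1536-well plates on the day after seeding, with either a lone drug or a fixed anchor-drug dose plus five library-drug doses (not always all listed) in √10 steps. Nuclei were counted on 4× images after 5 days. Relative viability is the ratio of treated-well to vehicle-well nuclei counts, with each value a median of duplicate plates.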

Pictilisib + Vorinostat = compound: CS(=O)(=O)N1CCN(Cc2cc3nc(-c4cccc5[nH]ncc45)nc(N4CCOCC4)c3s2)CC1 [Pictilisib] + O=C(CCCCCCC(=O)Nc1ccccc1)NO [Vorinostat] (partner 1 µM)
Procedure, shortened: as §1

Pictilisib + Olaparib = compound: CS(=O)(=O)N1CCN(Cc2cc3nc(-c4cccc5[nH]ncc45)nc(N4CCOCC4)c3s2)CC1 [Pictilisib] + O=C(c1cc(Cc2n[nH]c(=O)c3ccccc23)ccc1F)N1CCN(C(=O)C2CC2)CC1 [Olaparib] (partner 8 µM)
Procedure, shortened: as §1

MK-2206 + Linsitinib = compound: NC1(c2ccc(-c3nc4ccn5c(=O)[nH]nc5c4cc3-c3ccccc3)cc2)CCC1 [MK-2206] + C[C@]1(O)C[C@@H](c2nc(-c3ccc4ccc(-c5ccccc5)nc4c3)c3c(N)nccn32)C1 [Linsitinib] (partner 1 µM)
Procedure, shortened: as §1

MK-2206 + Olaparib = compound: NC1(c2ccc(-c3nc4ccn5c(=O)[nH]nc5c4cc3-c3ccccc3)cc2)CCC1 [MK-2206] + O=C(c1cc(Cc2n[nH]c(=O)c3ccccc23)ccc1F)N1CCN(C(=O)C2CC2)CC1 [Olaparib] (partner 8 µM)
Procedure, shortened: as §1

UMC-11 was tested, and the relative viability (Pictilisib + Pemetrexed; first compound 0.02 µM) was 0.784, the relative viability (Pictilisib + Pemetrexed; first compound 0.06325 µM) was 0.787 and the relative viability (Pictilisib + Pemetrexed; first compound 0.6325 µM) was 0.737. It also gave a relative viability (Pictilisib + Pemetrexed; first compound 2 µM) of 0.535, a relative viability (Pictilisib + Vorinostat; first compound 0.02 µM) of 0.366 and a relative viability (Pictilisib + Vorinostat; first compound 0.06325 µM) of 0.414. The relative viability (Pictilisib + Vorinostat; first compound 0.6325 µM) was 0.464, the relative viability (Pictilisib + Vorinostat; first compound 2 µM) was 0.354 and the relative viability (Pictilisib + Olaparib; first compound 0.02 µM) was 0.822. It also gave a relative viability (Pictilisib + Olaparib; first compound 0.06325 µM) of 0.344, a relative viability (Pictilisib + Olaparib; first compound 0.6325 µM) of 0.666 and a relative viability (Pictilisib + Olaparib; first compound 2 µM) of 0.384. For the same cell line, the relative viability (MK-2206 + Linsitinib; first compound 0.01 µM) was 1.1, the relative viability (MK-2206 + Linsitinib; first compound 0.03162 µM) was 1.02 and the relative viability (MK-2206 + Linsitinib; first compound 0.3162 µM) was 1.01. The relative viability (MK-2206 + Linsitinib; first compound 1 µM) was 1.01, the relative viability (MK-2206 + Olaparib; first compound 0.01 µM) was 0.52 and the relative viability (MK-2206 + Olaparib; first compound 0.03162 µM) was 1.16. The relative viability (MK-2206 + Olaparib; first compound 0.3162 µM) was 0.381 and the relative viability (MK-2206 + Olaparib; first compound 1 µM) was 0.363.
